# Experimental data published in ChEMBL document CHEMBL1128048, “Synthesis of chromophoric dipeptides as substrates for papain” (Bioorg Med Chem Lett, 1995).
# How the values were obtained:
# Format in all cases: ADME
# [1] = Ratio of catalytic constant to Michaelis-Menten constant (Kcat/Km)
# [2] = Compound was evaluated for catalytic constant, Kcat
# [3] = Compound was evaluated for Michaelis-Menten constant, Km
Ratio [1],k cat [2],Km [3],SMILES
3.2,0.2 min⁻¹,0.062 Me-3,CCOC(=O)/C(=C\c1ccc(C)s1)NC(=O)[C@H](Cc1ccccc1)NC(C)=O
,0.08 min⁻¹,,CCOC(=O)N/C(=C/c1ccc(C)s1)C(=O)n1ccnc1
,0.07 min⁻¹,,Cc1ccc(/C=C\C(=O)n2ccnc2)s1
0.05,0.2 min⁻¹,3.9 Me-3,CCOC(=O)/C(=C\c1ccc(C)s1)NC(=O)[C@H](C)NC(C)=O
